For orientation: IC50 means the concentration at which inhibition is half-maximal.

We go through 20 compounds from patent publication US9156840B2, “D2 antagonists, methods of synthesis and methods of use” (ALTOS THERAPEUTICS, LLC, priority 2010, dated 2015).

Where a name gives a salt, the structure may show the parent alone. Some results are limits rather than exact numbers.

In the first assay the target is T1, human D2 receptor (Homo sapiens, UniProt P14416).
T1 construct: expressed in transfected cells; cDNA from Origene clones TC308892 and SC123573
T1 sequence (P14416 whole entry): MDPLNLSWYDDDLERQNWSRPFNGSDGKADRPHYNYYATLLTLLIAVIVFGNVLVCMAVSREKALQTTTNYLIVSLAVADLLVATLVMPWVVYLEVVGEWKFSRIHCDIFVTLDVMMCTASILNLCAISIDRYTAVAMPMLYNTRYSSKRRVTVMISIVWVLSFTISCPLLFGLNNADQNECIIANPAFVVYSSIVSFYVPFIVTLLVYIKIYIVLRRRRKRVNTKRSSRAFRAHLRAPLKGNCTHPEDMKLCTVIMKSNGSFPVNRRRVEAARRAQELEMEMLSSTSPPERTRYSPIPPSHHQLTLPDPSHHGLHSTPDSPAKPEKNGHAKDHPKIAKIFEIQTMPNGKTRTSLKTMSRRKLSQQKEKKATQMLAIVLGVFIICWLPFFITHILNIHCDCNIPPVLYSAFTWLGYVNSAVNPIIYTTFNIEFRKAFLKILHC
Briefly: D2 receptor radioligand binding assay (membranes of HEK-293 cells expressing human D2 receptor).
Conditions: not given
The procedure: Affinity for the dopamine D2 receptor was tested in vitro, and the following describes the construction of cell lines expressing human D2 receptor, as well as the binding assays themselves.
Establishment of Stable Cell Lines Expressing Either the Cloned Human D2S Receptor or the Cloned Human D2L Receptor.
The human D2 receptor exists in two isoforms: the short form (D2S) and the long form (D2L). The two isoforms are generated from the D2 gene by alternative splicing and the D2L isoform differs from the D2S isoform by the addition of 29 amino acids in the third intracellular loop of its protein structure.
To establish HEK-293 cell lines stably expressing either the human D2S or the human D2L, the human dopamine D2S receptor (Genebank Accession Number NM_016574) and human dopamine D2L receptor (Genebank Accession Number BC021195) were amplified by PCR from Origene cDNA clones TC308892 and SC123573 (respectively) using the following primers: 5-[…]-3 (SEQ ID NO: 1) sense and 5-[…]-3 (SEQ ID NO: 2) antisense. The resulting PCR products were respectively cloned into pENTR-D-TOPO (Invitrogen), sequenced and then transferred into the pCDNA3.2-DEST (Invitrogen) using the LR-clonasc gateway reaction (Invitrogen) and sequenced again to verify the genes sequence.
HEK293 cells were maintained in Eagles Minimum Essential Medium (MEM) supplemented with 0.292 g/L L-glutamine and 10% (v/v) fetal calf serum at 37° C. in a 5% CO2 humidified atmosphere. Cells were grown to 60-80% confluency in 10 cm dishes before transfection. Transfection of the D2S and D2L containing pcDNA3.2-DEST into HEK-293 cells were performed using Lipofectamine 2000 (Invitrogen). Transfected cells were seeded and diluted 2 days after transfection and maintained in culture medium supplemented with 500 μg/mL G418. The HEK-293 cell line expressing the huD2S (R2D2S) and the huD2L (R2D2L) were maintained in culture medium supplemented with 500 μg/mL G418.
D2 Receptor Binding Assays
HEK293 cells were in Eagles Minimum Essential Medium (MEM) supplemented with 10% FBS, 0.292 g/liter L-glutamine, 10^5 units/liter penicillin, 100 mg/liter streptomycin and […] Geneticin at 37° C. in a 5% CO2 humidified atmosphere. Cells were grown to 80-90% confluence and harvested with cell stripper (Cellgro #25-056-CI). Cells were then washed with PBS (2×). Cells were either pelleted and frozen at −80° C. or membranes were prepared immediately.
Cells from pellet were resuspended in homogenization buffer (15 mM Tris*HCl, 2 mM MgCl2*6H2O, 0.3 mM EDTA, 1 mM EGTA pH 7.4 @ 4° C.). Cells were then homogenized using a Polytron (PT 1200) homogenizer at setting 6 for 10 seconds. Crude membranes were pelleted at 39, 412 g for 15 min, at 4° C. (2×) in a Sorval RC6 plus centrifuge. Membranes were finally resuspended in resuspension buffer (50 mM Tris*HCl, 120 mM NaCl, 10 mM MgCl2*6H2O, 1 mM EDTA pH 7.4 @ 4° C.) and sonicated (Fisher Sonic Dismembrator) at setting 5 for 10 seconds.
The radioligand binding assays were conducted in microtiter plates (Costar #3961) with a final volume of 1.0 mL.
The membranes were thawed at room temperature, briefly homogenized using a sonicator, diluted in assay buffer and kept on wet ice until being added to the assay plate. Membranes were diluted to a final target tissue concentration of 10 μg protein per well. The specific binding should be greater than 80% with less than 10% total radioligand bound to minimize ligand depletion errors.
First compound of the invention (50 μL) or assay buffer (50 mM Tris*HCl, 120 mM NaCl, 5 mM MgCl2*6H2O, 1 mM EDTA, 5 mM KCl pH 7.4 @37° C. plus 0.025% BSA), buffer (700 μL) and then membrane (200 μL) were added to the deep well assay plate, which was then shaken for 10 minutes. Finally, radioligand (50 μL) was added.
The assay plates were incubated at 37° C. for 120 minutes.
The assay plate were filtered over 0.3% PEI pretreated glass fiber filtermats (GF/C) using a Packard Filtermate cell harvester. […]
Consider `O=C(O[C@H]1CN2CCC1CC2)c1cccc(CN2CN(c3ccccc3)C3(CCN(CCCn4c(=O)[nH]c5ccccc54)CC3)C2=O)c1` [Compound 26, (R)-Quinuclidin-3-yl 3-((4-oxo-8-(3-(2-oxo-2,3-dihydro-1H-benzo[d]imidazol-1-yl)propyl)-1-phenyl-1,3,8-triazaspiro[4.5]decan-3-yl)methyl)benzoate], for which the IC50 was less than 10 nM.

Staying with this assay, now noted: radioligand displacement, HEK293 membranes, 37° C. for 120 minutes; read-out: Affinity Score (IC50 values for D2 on a scale of 1 through 5).
Consider `O=C(O)c1cccc(CN2CN(c3ccccc3)C3(CCN(CCCn4c(=O)sc5ccccc54)CC3)C2=O)c1` [Compound 52, 3-((4-Oxo-8-(3-(2-oxobenzo[d]thiazol-3(2H)-yl)propyl)-1-phenyl-1,3,8-triazaspiro[4.5]decan-3-yl)methyl)benzoic acid], for which the IC50 is less than 10 nM.
On the same count and under the same terms, as for `O=C(O)c1cccc(CN2CN(c3ccccc3)C3(CCN(CCCn4nnc5ccccc54)CC3)C2=O)c1` [Compound 85, 3-((8-(3-(1H-Benzo[d][1,2,3]triazol-1-yl)propyl)-4-oxo-1-phenyl-1,3,8-triazaspiro[4.5]decan-3-yl)methyl)benzoic acid], the figure is less than 10 nM; as for `O=C(O)c1cccc(CN2CN(c3ccccc3)C3(CCN(CCCN4C(=O)Cc5ccccc54)CC3)C2=O)c1` [Compound 89, 3-((4-oxo-8-(3-(2-oxoindolin-1-yl)propyl)-1-phenyl-1,3,8-triazaspiro[4.5]decan-3-yl)methyl)benzoic acid, hydrochloride], less than 10 nM.
The same measure, in the same setting: as for `CC1(F)C(=O)N(CCCN2CCC3(CC2)C(=O)N(Cc2ccccc2C(=O)O)CN3c2ccccc2)c2ccccc21` (centres unmarked) [Compound 162, 2-((8-(3-(3-Fluoro-3-methyl-2-oxoindolin-1-yl)propyl)-4-oxo-1-phenyl-1,3,8-triazaspiro[4.5]decan-3-yl)methyl)benzoic acid], the figure is less than 10 nM; as for `CS(=O)(=O)Nc1ccc(N2CN(c3ccccc3)C3(CCN(CCCN4C(=O)C5(CC5)c5ccccc54)CC3)C2=O)cc1` [Compound 216, N-(4-(4-Oxo-8-(3-(2′-oxospiro[cyclopropane-1,3′-indoline]-1′-yl)propyl)-1-phenyl-1,3,8-triazaspiro[4.5]decan-3-yl)phenyl)methanesulfonamide], less than 10 nM.
The same measure, in the same setting: next, `O=C(O)c1ccccc1CN1CN(c2ccccc2)C2(CCN(CCCN3C(=O)Cc4ccccc43)CC2)C1=O` [Compound 148, 2-((4-Oxo-8-(3-(2-oxoindolin-1-yl)propyl)-1-phenyl-1,3,8-triazaspiro[4.5]decan-3-yl)methyl)benzoic acid]: less than 10 nM; `O=C(O)c1cccc(CN2CN(c3ccccc3)C3(CCN(CCCN4C(=O)COc5ccccc54)CC3)C2=O)c1` [Compound 71, 3-((4-Oxo-8-(3-(3-oxo-2H-benzo[b][1,4]oxazin-4(3H)-yl)propyl)-1-phenyl-1,3,8-triazaspiro[4.5]decan-3-yl)methyl)benzoic acid]: less than 10 nM; `O=C(O)c1ccccc1CN1CN(c2ccc(F)cc2)C2(CCN(CCCn3c(=O)n(C4CC4)c4ccccc43)CC2)C1=O` [Compound 159, 2-((8-(3-(3-cyclopropyl-2-oxo-2,3-dihydro-1H-benzo[d]imidazol-1-yl)propyl)-1-(4-fluorophenyl)-4-oxo-1,3,8-triazaspiro[4.5]decan-3-yl)methyl)benzoic acid]: less than 10 nM.
With `COC(=O)c1cccc(CN2CN(c3ccccc3)C3(CCN(CCCc4c[nH]c5ccccc45)CC3)C2=O)c1` [Compound 57, methyl 3-((8-(3-(1H-indol-3-yl)propyl)-4-oxo-1-phenyl-1,3,8-triazaspiro[4.5]decan-3-yl)methyl)benzoate], the 50% inhibitory concentration (IC50) is less than 10 nM.
On the same count and under the same terms, next, `O=C(O)c1cccc(CN2CN(c3ccccc3)C3(CCN(CCCC(O)c4ccccc4)CC3)C2=O)c1` (centres unmarked) [Compound 173, 3-((8-(4-hydroxy-4-phenylbutyl)-4-oxo-1-phenyl-1,3,8-triazaspiro[4.5]decan-3-yl)methyl)benzoic acid]: less than 10 nM.
Still for that read-out and setting: next, `O=C(O)[C@@H](c1ccccc1)N1CN(c2ccccc2)C2(CCN(CCCN3C(=O)Cc4ccccc43)CC2)C1=O` [Compound 166, (R)-2-(4-oxo-8-(3-(2-oxoindolin-1-yl)propyl)-1-phenyl-1,3,8-triazaspiro[4.5]decan-3-yl)-2-phenylacetic acid]: less than 10 nM; `O=C(CCCN1CCC2(CC1)C(=O)N([C@@H](C(=O)O)c1ccccc1)CN2c1ccccc1)c1ccccc1` [Compound 167, (R)-2-(4-oxo-8-(4-oxo-4-phenylbutyl)-1-phenyl-1,3,8-triazaspiro[4.5]decan-3-yl)-2-phenylacetic acid]: less than 10 nM.
As for `O=C(CCCCCN1CN(c2ccccc2)C2(CCN(CCCn3c(=O)[nH]c4ccccc43)CC2)C1=O)OCc1ccccc1` [Compound 21, Benzyl 6-(4-oxo-8-(3-(2-oxo-2,3-dihydro-1H-benzo[d]imidazol-1-yl)propyl)-1-phenyl-1,3,8-triazaspiro[4.5]decan-3-yl)hexanoate], the IC50 was less than 10 nM.
The same measure, in the same setting: as for `O=C(O)c1cccc(CN2CN(c3ccccc3)C3(CCN(CCCn4c(=O)[nH]c5ccccc54)CC3)C2=O)c1` [Compound 11, 3-((4-Oxo-8-(3-(2-oxo-2,3-dihydro-1H-benzo[d]imidazol-1-yl)propyl)-1-phenyl-1,3,8-triazaspiro[4.5]decan-3-yl)methyl)benzoic acid], the figure is less than 10 nM; as for `O=C(O)c1cccc(CN2CN(C3CCCCC3)C3(CCN(CCCC(=O)c4ccccc4)CC3)C2=O)c1` [Compound 176, 3-((1-cyclohexyl-4-oxo-8-(4-oxo-4-phenylbutyl)-1,3,8-triazaspiro[4.5]decan-3-yl)methyl)benzoic acid, hydrochloride], less than 10 nM.
Still for that read-out and setting: next, `O=C(O)c1cccc(CN2CN(C3CCCCC3)C3(CCN(CCCn4c(=O)[nH]c5ccccc54)CC3)C2=O)c1` [Compound 72, 3-((1-cyclohexyl-4-oxo-8-(3-(2-oxo-2,3-dihydro-1H-benzo[d]imidazol-1-yl)propyl)-1,3,8-triazaspiro[4.5]decan-3-yl)methyl)benzoic acid, formate]: less than 10 nM; `CCN(CC)C(=O)COC(=O)c1cccc(CN2CN(c3ccccc3)C3(CCN(CCCn4c(=O)[nH]c5ccccc54)CC3)C2=O)c1` [Compound 30, 2-(Diethylamino)-2-oxoethyl 3-((4-oxo-8-(3-(2-oxo-2,3-dihydro-1H-benzo[d]imidazol-1-yl)propyl)-1-phenyl-1,3,8-triazaspiro[4.5]decan-3-yl)methyl)benzoate]: less than 10 nM; `COC(=O)[C@@H](c1ccccc1)N1CN(c2ccccc2)C2(CCN(CCCn3c(=O)[nH]c4ccccc43)CC2)C1=O` [Compound 34, (R)-methyl 2-(4-oxo-8-(3-(2-oxo-2,3-dihydro-1H-benzo[d]imidazol-1-yl)propyl)-1-phenyl-1,3,8-triazaspiro[4.5]decan-3-yl)-2-phenylacetate]: less than 10 nM.
Regarding `CS(=O)(=O)Nc1cccc(CN2CN(c3ccccc3)C3(CCN(CCCN4C(=O)C5(CC5)c5ccccc54)CC3)C2=O)c1` [Compound 212, N-(3-((4-Oxo-8-(3-(2′-oxospiro[cyclopropane-1,3′-indoline]-1′-yl)propyl)-1-phenyl-1,3,8-triazaspiro[4.5]decan-3-yl)methyl)phenyl)methanesulfonamide], the half-maximal inhibitory concentration (IC50) is less than 10 nM.
